Experimental data taken from the NIST ThermoML archive (doi:10.1021/je100148h).

Assay: xn = mol fraction of the nth substance listed
Settings: Fluid (supercritical or subcritical phases), Burnett expansion method

CCC [propane] + O=C=O
Settings | mass density [kg/m3]
360.01 K, 5054 kPa, x2 = 0.8017 | 90.4354
360.01 K, 6218.2 kPa, x2 = 0.5158 | 141.203
360.02 K, 178.29 kPa, x2 = 0.8017 | 2.6378
360.02 K, 245.35 kPa, x2 = 0.8017 | 3.6378
360.02 K, 337.31 kPa, x2 = 0.8017 | 5.0167
360.02 K, 463.19 kPa, x2 = 0.8017 | 6.9183
360.02 K, 634.97 kPa, x2 = 0.8017 | 9.5406
360.02 K, 868.69 kPa, x2 = 0.8017 | 13.1566
360.02 K, 3863.5 kPa, x2 = 0.8017 | 65.5911
360.02 K, 6495 kPa, x2 = 0.8017 | 124.684
370 K, 1659.1 kPa, x2 = 0.8017 | 25.0073
370.01 K, 476.31 kPa, x2 = 0.8017 | 6.9151
370.01 K, 653.23 kPa, x2 = 0.8017 | 9.5361
370.01 K, 894.13 kPa, x2 = 0.8017 | 13.1504
370.01 K, 1220.3 kPa, x2 = 0.8017 | 18.1344
370.01 K, 2244.1 kPa, x2 = 0.8017 | 34.4826
370.01 K, 3013.9 kPa, x2 = 0.8017 | 47.5475
370.01 K, 5267 kPa, x2 = 0.8017 | 90.3909
370.02 K, 205.87 kPa, x2 = 0.5158 | 2.9726
370.02 K, 283.04 kPa, x2 = 0.5158 | 4.1011
370.02 K, 346.79 kPa, x2 = 0.8017 | 5.0143
370.02 K, 388.65 kPa, x2 = 0.5158 | 5.6577
370.02 K, 992.19 kPa, x2 = 0.5158 | 14.8545
370.02 K, 1345.8 kPa, x2 = 0.5158 | 20.4921
370.02 K, 1815.3 kPa, x2 = 0.5158 | 28.2684
370.02 K, 2426.9 kPa, x2 = 0.5158 | 38.9941
370.02 K, 3206 kPa, x2 = 0.5158 | 53.7882
370.02 K, 4009.4 kPa, x2 = 0.8017 | 65.5581
370.02 K, 4171 kPa, x2 = 0.5158 | 74.1924
370.02 K, 5317.2 kPa, x2 = 0.5158 | 102.331
370.02 K, 6617 kPa, x2 = 0.5158 | 141.135
370.02 K, 6810.4 kPa, x2 = 0.8017 | 124.62
370.03 K, 532.61 kPa, x2 = 0.5158 | 7.8051
370.03 K, 728.17 kPa, x2 = 0.5158 | 10.7675
380.02 K, 188.21 kPa, x2 = 0.8017 | 2.6354
380.02 K, 259.02 kPa, x2 = 0.8017 | 3.6346
380.02 K, 399.41 kPa, x2 = 0.5158 | 5.6555
380.02 K, 671.46 kPa, x2 = 0.8017 | 9.5319
380.02 K, 919.55 kPa, x2 = 0.8017 | 13.1448
380.02 K, 1255.9 kPa, x2 = 0.8017 | 18.1264
380.02 K, 1386.9 kPa, x2 = 0.5158 | 20.4838
380.02 K, 1709 kPa, x2 = 0.8017 | 24.9958
380.02 K, 1873.6 kPa, x2 = 0.5158 | 28.257
380.02 K, 3114.5 kPa, x2 = 0.8017 | 47.5261
380.02 K, 3326.5 kPa, x2 = 0.5158 | 53.7656
380.02 K, 4154.3 kPa, x2 = 0.8017 | 65.5297
380.02 K, 4347.6 kPa, x2 = 0.5158 | 74.1614
380.02 K, 5478.5 kPa, x2 = 0.8017 | 90.3475
380.02 K, 5579.3 kPa, x2 = 0.5158 | 102.287
380.02 K, 7122.7 kPa, x2 = 0.8017 | 124.564
380.03 K, 356.25 kPa, x2 = 0.8017 | 5.0122
380.03 K, 489.43 kPa, x2 = 0.8017 | 6.9121
380.03 K, 547.58 kPa, x2 = 0.5158 | 7.802
380.03 K, 749.01 kPa, x2 = 0.5158 | 10.7633
380.03 K, 1021.4 kPa, x2 = 0.5158 | 14.8485
380.03 K, 2314.7 kPa, x2 = 0.8017 | 34.4669
380.03 K, 2510.4 kPa, x2 = 0.5158 | 38.978
380.03 K, 7010.3 kPa, x2 = 0.5158 | 141.07
380.04 K, 211.45 kPa, x2 = 0.5158 | 2.9713
380.04 K, 290.81 kPa, x2 = 0.5158 | 4.0993
390.02 K, 2384.9 kPa, x2 = 0.8017 | 34.4507
390.02 K, 3446.3 kPa, x2 = 0.5158 | 53.7433
390.02 K, 5838.5 kPa, x2 = 0.5158 | 102.241
390.03 K, 193.15 kPa, x2 = 0.8017 | 2.6342
390.03 K, 217.06 kPa, x2 = 0.5158 | 2.9702
390.03 K, 265.87 kPa, x2 = 0.8017 | 3.6329
390.03 K, 365.64 kPa, x2 = 0.8017 | 5.0098
390.03 K, 410.13 kPa, x2 = 0.5158 | 5.6532
390.03 K, 502.51 kPa, x2 = 0.8017 | 6.9089
390.03 K, 689.66 kPa, x2 = 0.8017 | 9.5275
390.03 K, 769.82 kPa, x2 = 0.5158 | 10.759
390.03 K, 944.86 kPa, x2 = 0.8017 | 13.1385
390.03 K, 1050.5 kPa, x2 = 0.5158 | 14.8425
390.03 K, 1428 kPa, x2 = 0.5158 | 20.475
390.03 K, 1758.8 kPa, x2 = 0.8017 | 24.9833
390.03 K, 1931.7 kPa, x2 = 0.5158 | 28.245
390.03 K, 2593.4 kPa, x2 = 0.5158 | 38.9614
390.03 K, 3214.7 kPa, x2 = 0.8017 | 47.5025
390.03 K, 4298.5 kPa, x2 = 0.8017 | 65.4967
390.03 K, 4522.9 kPa, x2 = 0.5158 | 74.1282
390.03 K, 5688.3 kPa, x2 = 0.8017 | 90.3013
390.03 K, 7399 kPa, x2 = 0.5158 | 141.004
390.03 K, 7432.4 kPa, x2 = 0.8017 | 124.497
390.04 K, 298.57 kPa, x2 = 0.5158 | 4.0977
390.04 K, 562.52 kPa, x2 = 0.5158 | 7.7989
390.04 K, 1291.3 kPa, x2 = 0.8017 | 18.1174
400.02 K, 970.17 kPa, x2 = 0.8017 | 13.1371
400.03 K, 272.65 kPa, x2 = 0.8017 | 3.6324
400.03 K, 375.15 kPa, x2 = 0.8017 | 5.0093
400.03 K, 515.7 kPa, x2 = 0.8017 | 6.908
400.03 K, 577.33 kPa, x2 = 0.5158 | 7.7944
400.03 K, 707.92 kPa, x2 = 0.8017 | 9.5262
400.03 K, 790.53 kPa, x2 = 0.5158 | 10.7528
400.03 K, 1079.5 kPa, x2 = 0.5158 | 14.8335
400.03 K, 1326.5 kPa, x2 = 0.8017 | 18.1154
400.03 K, 1468.7 kPa, x2 = 0.5158 | 20.4633
400.03 K, 1808.4 kPa, x2 = 0.8017 | 24.9801
400.03 K, 2454.9 kPa, x2 = 0.8017 | 34.4454
400.03 K, 3565.3 kPa, x2 = 0.5158 | 53.7096
400.03 K, 6095.5 kPa, x2 = 0.5158 | 102.176
400.03 K, 7739.4 kPa, x2 = 0.8017 | 124.476
400.03 K, 7784.2 kPa, x2 = 0.5158 | 140.912
400.04 K, 198.07 kPa, x2 = 0.8017 | 2.6338
400.04 K, 222.65 kPa, x2 = 0.5158 | 2.9684
400.04 K, 306.29 kPa, x2 = 0.5158 | 4.0953
400.04 K, 420.82 kPa, x2 = 0.5158 | 5.6498
400.04 K, 1989.5 kPa, x2 = 0.5158 | 28.2277
400.04 K, 2676 kPa, x2 = 0.5158 | 38.9372
400.04 K, 3314.3 kPa, x2 = 0.8017 | 47.4952
400.04 K, 4441.8 kPa, x2 = 0.8017 | 65.4859
400.04 K, 4696.7 kPa, x2 = 0.5158 | 74.0811
400.04 K, 5896.6 kPa, x2 = 0.8017 | 90.2853
